Like-named read-outs stand apart in the source and are kept apart here.
Experiments:
RBL-2H3 cells = assay: Inhibition of serotonin liberation from IgE-sensitized, antigen-stimulated RBL-2H3 cells ([3H]-serotonin); format: cell-based; conditions: Rattus norvegicus; IgE-sensitized RBL-2H3 cells stimulated with specific antigen; [3H]-labeled serotonin
Source text: Under the action of an antigen specific to the IgE antibody, RBL-2H3 cells, i.e., a cell line originating in rat cells, not only liberate histamine and serotonin but also produce and liberate cytokines such as TNF" serving as an inflammatory mediator and prostaglandins. In this experimental system, the effects of the compounds of the present invention of inhibiting the liberation of various mediators were examined by using serotonin as an indication.
The cells were labeled with [^3H]-labeled serotonin and, at the same time, sensitized with the IgE antibody. Next, these cells were incubated in the presence of the acridone compounds according to the present invention and then stimulated with the specific antigen. Then the serotonin liberation inhibitory activity of each acridone compound was calculated from the amount of the [^3H]-labeled serotonin thus liberated into the medium due to the above-mentioned stimulation and the amount of the [^3H]-labeled serotonin liberated into the medium by the same experimental procedure as the one described above but adding no acridone compound of the present invention.

human basophils = assay: Inhibition of mediator (histamine, peptide leukotriene) liberation from human basophils stimulated with tick antigen; format: cell-based; conditions: leukocyte fraction containing basophils, enzyme immunoassay
Experimental: To 20 ml of heparinized blood was added 6 ml of 6% dextran (for separating leukocytes, high molecular weight). The obtained mixture was thoroughly stirred and then allowed to stand at 37°C for 30 minutes to thereby sediment erythrocytes. The upper layer was taken out and phosphate-buffered saline was added thereto. The obtained mixture was centrifuged at 185 G for eight minutes to thereby give a crude leukocyte fraction. These cells (leukocyte fraction) were subjected to hypotonic hemolysis and then suspended in D-PBS(+) containing 0.1% of BSA. The cell suspension thus prepared was used in the subsequent experiment as the leukocyte fraction containing basophils.
To 0.4 ml of this cell suspension preliminarily heated at 37°C for 5 minutes was added 0.05 ml of a solution containing each acridone compound of the present invention. The obtained mixture was then allowed to stand at 37°C for 15 minutes so that the cells were pre-treated. Next, 0.05 ml of a tick antigen solution was added thereto to thereby induce an antigen-antibody reaction. Ten minutes thereafter, the antigen-antibody reaction was ceased by ice-cooling. After ceasing the reaction, the mixture was centrifuged at 185 G for ten minutes. The supernatant was taken out and the contents of histamine and a peptide leukotriene therein were determined by using each an enzyme immunoassay kit. Based on the data thus obtained, the activities of the compound of inhibiting the liberation of histamine and peptide leukotriene were determined.

[1] = biological target: T1, tyrosine kinase of 72 kDa (Rattus norvegicus, UniProt Q64725); assay: Inhibition of phosphorylation (activation) of the 72 kDa tyrosine kinase induced by phosphorylated TAM peptide of IgE receptor γ-chain, western blotting; format: biochemical; conditions: Compd. concentration 10 μM; RBL-2H3 lysate or cytosol, TAM peptide 10 µM, ATP 50 µM; tyrosine kinase phosphorylation inhibitory ratio; read-out: Inhibitory potency
T1 construct: the tyrosine kinase of 72 kDa contained in the lysate or cytosol thus prepared; endogenous in cells; host or cells: RBL-2H3 cells (NP-40 lysate or cytosol fraction)
Source text: In this experiment, use was made of RBL-2H3 cells, i.e., a cell line which is generally employed in the studies on the informational transmission system in IgE receptors of mast cells or basophils and a peptide in the tyrosine activation motif (TAM) region containing phosphorylated tyrosine in a human IgE receptor γ chain synthesized by Peputido Kenkyusho K.K..
In this experiment, use was made of a lysate which had been obtained by solubilizing 1 × 10^7 to 5 × 10^7 cells with the use of a solution containing various proteases and NP-40 employed as a solubilizer at a concentration of 1% and a supernatant (as the cytosol fraction of the cells) which had been obtained by disrupting the cells with Down's homogenizer and centrifuging the obtained mixture at 50,000 rpm for 1 hour. The concentrations of the lysate and cytosol of the cells were each adjusted to 1 mg protein/ml with the use of an isotonic buffer. […]
The extent of the activation of this tyrosine kinase was determined by confirming the extent of the phosphorylation of the tyrosine moiety in the tyrosine kinase per se by western blotting with the use of an anti-tyrosine phosphorylation antibody and then numerically expressing the obtained data with an image analyzer. Based on the extent of the phosphorylation thus obtained, the tyrosine kinase phosphorylation inhibitory ratio of the compound 101 was determined.

[2] = histamine, read-out: IC50 (µM) in mediator liberation from human basophils histamine
[3] = peptide leukotriene, read-out: IC50 (µM) in mediator liberation from human basophils leukotriene

T1 sequence (Q64725 whole entry): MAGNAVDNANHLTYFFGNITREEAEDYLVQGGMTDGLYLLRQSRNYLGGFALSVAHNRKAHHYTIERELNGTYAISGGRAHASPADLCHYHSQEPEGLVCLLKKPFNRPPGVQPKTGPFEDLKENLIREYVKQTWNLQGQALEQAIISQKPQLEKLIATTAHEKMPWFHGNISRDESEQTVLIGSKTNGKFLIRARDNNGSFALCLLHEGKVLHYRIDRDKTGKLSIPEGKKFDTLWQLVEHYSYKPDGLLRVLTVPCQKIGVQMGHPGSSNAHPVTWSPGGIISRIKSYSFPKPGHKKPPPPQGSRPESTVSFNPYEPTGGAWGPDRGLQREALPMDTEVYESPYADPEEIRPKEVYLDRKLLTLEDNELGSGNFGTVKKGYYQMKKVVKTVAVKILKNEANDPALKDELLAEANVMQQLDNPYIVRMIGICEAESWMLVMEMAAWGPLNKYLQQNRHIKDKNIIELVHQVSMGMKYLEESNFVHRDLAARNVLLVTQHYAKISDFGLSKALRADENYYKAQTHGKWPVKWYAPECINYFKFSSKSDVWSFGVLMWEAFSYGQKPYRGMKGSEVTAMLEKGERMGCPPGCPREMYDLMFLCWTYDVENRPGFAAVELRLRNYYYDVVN

| IC50 (human basophils; [2]) | IC50 (human basophils; [3]) | inhibition at 10 µM [1] | SMILES | IC50 (RBL-2H3 cells) |
| --- | --- | --- | --- | --- |
| – | 10 to 30 µM | – | CNC(=O)Cc1cccc2c1c(=O)c1ccc(C)c(C)c1n2CCCN(C)Cc1ccccc1 [Compound 135] | 2 µM |
| 30 to 100 µM | 3 to 10 µM | – | Cc1ccc2c(=O)c3c(C(C)C(=O)O)cccc3n(CCCNCc3ccccc3)c2c1C (stereo not drawn) [Compound 141] | 1 µM |
| 30 µM | 10 µM | – | Cc1ccc2c(=O)c3c(C(C)C(=O)O)cccc3n(CCCNCc3ccc(Cl)cc3Cl)c2c1C (stereo not drawn) [Compound 143] | 1 µM |

Second part, the compound before the results:

| SMILES | IC50 (human basophils; [2]) | IC50 (human basophils; [3]) | inhibition at 10 µM [1] | IC50 (RBL-2H3 cells) |
| --- | --- | --- | --- | --- |
| Cc1ccc2c(=O)c3c(CC(=O)O)cccc3n(CCCNCc3ccccc3)c2c1C [Compound 1] | 30 µM | 30 to 100 µM | – | 3 µM |
| Cc1ccc2c(=O)c3c(CC(=O)O)cccc3n(CCCNCc3ccc(Cl)cc3Cl)c2c1C [Compound 13] | 10 to 30 µM | 3 to 10 µM | – | 0.2 µM |
| COc1c(CNCCCn2c3cccc(CC(=O)O)c3c(=O)c3ccc(C)c(C)c32)ccc(Cl)c1Cl [Compound 28] | 10 µM | 3 µM | – | 1 µM |
| Cc1ccc2c(=O)c3ccccc3n(CCCNCc3ccccc3O)c2c1C [Compound 39] | 10 µM | 3 µM | – | 1 µM |
| Cc1ccc2c(=O)c3c(CC(=O)O)cccc3n(CCCN(C)Cc3ccccc3)c2c1C [Compound 101] | – | 10 to 30 µM | 70% | 3 µM |
| Cc1ccc2c(=O)c3c(C(C)C(=O)O)cccc3n(CCCNCc3ccc(Cl)c(Cl)c3)c2c1C (stereo not drawn) [Compound 142] | – | – | – | 1 µM |

Reference: patent publication EP0857721A1, “ACRIDONE COMPOUNDS” (Eisai Co., Ltd., priority 1995, dated 1997)
